Data: US20150125893A1, “TRANSPORTER BIOSENSORS” (Carnegie Institute of Washington, priority 2013, published 2015)

How the values were obtained:
OzTrac-MSL10 = OzTrac-MSL10 FRET osmosensor expressed in yeast cells, response to osmolytes; format: cell-based, Arabidopsis thaliana; details: for FRET emission ratio: addition of 1M osmolyte; for FRET emission ratio / FRET response to osmolyte: yeast cells; for FRET response to osmolyte: hyper-osmotic stress, NaCl at 1M
Excerpt: Fusion proteins comprising the mechanisensitive channel small conductance-like 10 (AtMSL10) were constructed, potentially creating an osmosensor. […] This t9AFP-AtMSL10-t7TFPt9 protein is named as OzTrac-MSL10. […] Upon treatment of 1 M NaCl, which induces hyper-osmotic stress, AtMSL10 will undergo a conformational change into the closed state which causes the FRET pairs to come closer, resulting in a higher FRET.
The OzTrac-MSL10 FRET sensor can detect a range of osmolarity concentration changes. […] The calculation of the dissociation constant is around 0.5 M for NaCl and KCl, and around 1M for […] and […].

[1] = test system: pDRFlip302 (NRT1.1 with AFPt9 and mCerulean)
Excerpt: (§1) All transporter and sensor constructs were inserted in the yeast expression vector pDRFlip30, 34, 35, 39, 42-GW. The details of the vectors are as follows: pDRFlip30 using pair of N-terminal fluorescent protein Aphordite t9 (AFPt9), 9 amino acids truncated of C-term of AFP, and C-terminal fluorescent protein monomeric Cerulean (mCer); pDRFlip 39 using pair of N-terminally fused fluorescent protein enhanced dimer Aphrodite t9 (edAFPt9) and C-terminal fluorescent protein enhanced dimer, 7 amino acids and 9 amino acids truncated of N-term and C-term of eCyan (t7.ed.eCFPt9), respectively; pDRFlip 42 using pair of N-terminal fluorescent protein Citrine and C-terminal fluorescent protein mCer; pDRFlip 34 using pair of N-terminal fluorescent protein AFPt9 and C-terminal fluorescent protein t7.Teal.t9 (t7.TFP.t9), and pDRFlip 35 using pair of N-terminal fluorescent protein AFPt9 and C-terminal fluorescent protein mTFPt9. All vectors contained […] replication origin, GATEWAY™ cassette-attR1-CmR-ccdB gene-attR2 sequence, which is between the pair of fluorescent proteins, a PMA1 promoter fragment, an ADH terminator, different pairs of fluorescent proteins, and the URA cassette for selection in yeast. The full length ORF of NRT1.1 and different mutants of NRT1.1, such as T101A, T101D, P492L from Arabidopsis (At1g12110) in TOPO GATEWAY™ entry vector were used to prepare the nitrate sensors of the present invention. The yeast vector harboring the constructs was then created by the GATEWAY™ LR reaction between different forms of pTOPO-NRT and different pDRFlip-GWs, following manufacturer's instructions..
(§2) Yeast strains used in this study were BJ5465 [MATa, ura3-52, trp1, leu2Δ1, his3Δ200, pep4::HIS3, prb1Δ1.6R, cant GAL+] obtained from Yeast Genetic Stock Center (University of California, Berkeley, Calif.). Yeast was transformed using the lithium acetate method and selected on solid YNB (minimal yeast medium without nitrogen; Difco) supplemented with 2% glucose and -Ura DropOut (Clontech).

[2] = test system: CHL1 nitrate transporter (Aphrodite-t9 N-terminus, Teal-t9 C-terminus)
Excerpt: as §1, §2

[3] = test system: CHL1 nitrate transporter (AFPt9 in central loop, Teal-t9 in loop between helices 10 and 11)
Excerpt: as §1, §2

[4] = test system: NRT1.1 T101A mutant fusion protein; test: Nitrate sensor fluorescence response in yeast, NRT1.1 T101A low affinity mutant fusion protein; format: cell-based, Arabidopsis thaliana
Description: Yeast strains used in this study were BJ5465 [MATa, ura3-52, trp1, leu2Δ1, his3Δ200, pep4::HIS3, prb1Δ1.6R, cant GAL+] obtained from Yeast Genetic Stock Center (University of California, Berkeley, Calif.). Yeast was transformed using the lithium acetate method and selected on solid YNB (minimal yeast medium without nitrogen; Difco) supplemented with 2% glucose and -Ura DropOut (Clontech). Single colonies were grown in 5 mL liquid YNB supplemented with 2% glucose and -Ura DropOut under agitation (220 rpm) at 30° C. until OD600 nm˜0.8 was reached. The liquid cultures were subcultured by diluted to OD600 nm 0.01 in the same liquid medium and conditions at 30° C. until OD600 nm 0.2 was reached. […] Fluorescence was measured by a fluorescence plate reader (M1000, TECAN), in bottom reading mode using a 7.5 nm bandwidth for both excitation and emission. To measure fluorescence response to substrate addition, 100 μL of substrate (dissolved in MES buffer as 500% stock solution) were added to 100 μL of cells in a 96-well plate (Greiner). Fluorescence from cultures harboring yeast expression vectors pDRFlip30, 39, and 42 was measured as emission at λem=470-570 nm using excitation at λexc=428 nm and fluorescence using yeast expression vector pDRFlip34 and 35 was measured as emission at λem=470-570 nm using excitation at λexc=440 nm.

[Cl-].[K+] [KCl, potassium chloride]
FRET emission ratio (OzTrac-MSL10): higher FRET emission ratio | FRET response to osmolyte (OzTrac-MSL10): increased the FRET

OC[C@@H](O)[C@@H](O)[C@H](O)[C@@H](O)CO [sorbitol]
FRET emission ratio (OzTrac-MSL10): higher FRET emission ratio | FRET response to osmolyte (OzTrac-MSL10): increased the FRET

O=[N+]([O-])O [nitrate]
change in FRET on addition of nitrate [1]: does not induce a change in FRET | change in FRET on addition of nitrate [2]: does not induce a change in FRET | change in FRET on addition of nitrate [3]: does not induce a change in FRET

OCC(O)CO [glycerol]
FRET emission ratio (OzTrac-MSL10): higher FRET emission ratio | FRET response to osmolyte (OzTrac-MSL10): increased the FRET

O=[N+]([O-])[O-].[K+] [KNO3]
sensor response ([4]; high levels of KNO3): only responds to addition of high levels | sensor response ([4]; low levels of KNO3): does not respond

[Cl-].[Na+] [NaCl, sodium chloride]
emission spectrum change (OzTrac-MSL10; 1M NaCl, excitation at 440 nm): decrease in fluorescence intensity of donor and increase of acceptor | FRET emission ratio (OzTrac-MSL10): higher FRET emission ratio | FRET response to osmolyte (OzTrac-MSL10): dramatic FRET change | FRET change with serial concentrations (OzTrac-MSL10; serial NaCl concentrations (mM), excitation at 440 nm): concentration-dependent FRET changes
